Test system: Alginate lyase from Bacillus stearothermophilus
Experiment: Effects of chemicals commonly used in water cooling systems on alginate lyase activity
Assay type: biochemical
Conditions: for Inhibition (%) of Chemicals on Enzyme Activity: chemical at 10 mM final concentration, 16 hours incubation; for inhibition of the enzyme (in words): mineral content of cooling water
Description: Alginate lyase activity (increase in optical density at 230 nm) at 55° C. was monitored with sodium alginate as the substrate. Constant amounts of substrate, enzyme and MgCl2 (10 mM) were present in all reactions. Citrate-phosphate buffer was used between pH 5.0 and 6.5 and phosphate buffer was used between pH 6.0 and 8.0.
EDTA (ethylene diamine tetraacetate), NaCl, FeSO4, NaAlO2, Na2 MoO4, Zn, glutaraldehyde hydrazine and sodium nitrite were tested at the final concentration of 10 mM. Alginate lyase activity was monitored as described in Example 2 over 16 hours incubation.

Q: With `O=CCCCC=O` [glutaraldehyde] as the compound, how does the “Inhibition (%) of Chemicals on Enzyme Activity” value (“Inhibition (%) of Chemicals” for short) read?
A: The value was 0%.

Q: Which “Inhibition (%) of Chemicals” value does the source give for `[Na+].[O]=[Al-]=[O]` [NaAlO2] here?
A: Its value is 0%.

Q: With `[Na+].[Na+].[O]=[Mo](=[O])([O-])[O-]` [Na2 MoO4] as the compound, how does the “Inhibition (%) of Chemicals” value read?
A: The value was 0%.

Q: For `O=N[O-].[Na+]` [NaNO2, sodium nitrite], which “Inhibition (%) of Chemicals” value is on record?
A: The value was 0%.

Q: Which “Inhibition (%) of Chemicals” value does the source give for `[Zn]` [Zn] here?
A: The value was 43.7%.

Q: And the “inhibition of the enzyme (in words)” value?
A: The value was “partially inhibit”.

Q: With `O=C(O)CN(CCN(CC(=O)O)CC(=O)O)CC(=O)O` [EDTA, ethylene diamine tetraacetate] as the compound, how does the “Inhibition (%) of Chemicals” value read?
A: The value was 0%.

Q: Which results are given for `[Cl-].[Na+]` [NaCl]?
A: Inhibition (%) of Chemicals on Enzyme Activity: 48.7%; inhibition of the enzyme (in words): partially inhibit

Q: Which “Inhibition (%) of Chemicals” value does the source give for `O=S(=O)([O-])[O-].[Fe+2]` [FeSO4] here?
A: Its value is 0%.

Q: For `NN` [hydrazine], which “Inhibition (%) of Chemicals” value is on record?
A: Its value is 0%.
